From US8778932B2, “Dihydro-oxazolobenzodiazepinone compounds, a process for there preparation and pharmaceutical compositions containing them” (Les Laboratoires Servier, priority 2011, dated 2014)

Key:
[1] = target: HEK-293 cells stably expressing the subunit α5 of the human GABAA receptor, and also the subunits beta2 (short) and gamma2 (long) (Homo sapiens (Human), UniProt P18507+P31644+P47870); assay: GABAA receptor activity study (membrane potential, FMP marker, FlexStation3); assay type: cell-based; details: 40 min preincubation, then GABA, read-out: alpha5 IC50
Procedure: (§1) The compounds are tested on HEK-293 (Human Embryonic Kidney) cells stably expressing the subunit α5 of the human GABAA receptor, and also the subunits beta2 (short) and gamma2 (long). The cells are maintained in the presence of a selection of three antibiotics—neomycin, zeocin and puromycin—in a Dulbecco medium (DMEM) containing 10% (v/v) foetal bovine serum. On the day before the experiment, the cells are transferred to 96-well plates (in a density of 50,000 cells/well). The cells are then preincubated for 40 minutes with the compounds under test and are treated with GABA. The membrane potential is monitored using a blue FMP marker (Molecular Devices), following the instructions of the manufacturer. The responses are recorded for 120 seconds on a FlexStation3 plate reader (Molecular Devices, USA). The IC50 values of the tested compounds are determined by curve adjustment obtained by non-linear regression using SoftMax Pro software (Molecular Devices, USA).

[2] = target: HEK-293 cells stably expressing the subunit α5 of the human GABAA receptor, and also the subunits beta2 (short) and gamma2 (long) (Homo sapiens (Human), UniProt P31644); assay: as above; assay type: cell-based; details: 40 min preincubation, then GABA, read-out: alpha5 IC50
Procedure: as §1

male NMRI mice [3] = assay: Test for recognition of new objects, in the mouse; assay type: in vivo; details: i.p.
Procedure: This test measures non-spatial working memory in the rodent. It is based on the natural tendency of the animal to spend more time exploring a new object than a familiar object.
On Day 0 (familiarisation phase), male NMRI mice are placed in a black PVC box (32×45×27 cm) without an object, for 2.5 minutes. On the first day the mice are free to explore two identical objects for 3 minutes (acquisition phase). On the second day one of the objects is replaced by a new object and the duration of exploration is timed for each object over a period of 4 minutes (retention phase). Pretreatment with the compounds of the invention is carried out by the i.p. route on the day of the acquisition phase. The duration of exploration is measured by the TSE System software (TSE System GmbH, Bad Homburg, Germany),

rats = assay: Radial maze test in the rat (ketamine-induced memory deficit); assay type: in vivo; details: dose-dependent from 0.3 to 3 mg/kg p.o., ketamine 10 mg/kg i.p., FIG. 4
Source text: This test is widely used to evaluate working and referential memory in the rodent. The apparatus consists of a small central octagonal platform from which there radiate eight different, equally spaced corridors. At the end of each corridor there is food, which is not visible from the central platform. In the experiment, all the corridors contain a reward and the animal has to visit each of the corridors just once. Each further visit is considered an error.
On the first day of the experiment the rats are deprived of food for 24 hours. Learning starts on the following day. The rats are placed on the central platform of the maze, each of the eight corridors having been provided with food. The animals are free to eat the food in the eight corridors. If a rat has not eaten all of the food within 20 minutes, it is withdrawn from the maze.
The experiments are continued once a day until the animals attain the determined objective, namely obtaining a total number of errors—that is to say, of any further visits to a corridor—of less than 3. These animals are included in the rest of the study. On the last day, the selected rats are treated p.o. with ketamine (10 mg/kg i.p.) co-administered either with a carrier or with a compound of the invention. The tests start 120 minutes after administration. Each test lasts a maximum of 5 minutes.

male NMRI mice [4] = assay: Occlusion of the middle cerebral artery (MCA) in the mouse; assay type: in vivo; details: doses of 1, 3 and 10 mg/kg i.p., 30 minutes after MCA occlusion, FIG. 5
Procedure: Permanent focal cerebral ischaemia is produced by electrocoagulation of the left MCA (according to the method of Welsh F A et al., J. Neurochem. 1987, 49, 846-851). Male NMRI mice are anaesthetised using 2,2,2-tribromoethanol (500 mg/kg i.p., 20 ml/kg). An incision is made in the left temporo-parietal region of the head between the orbit and the ear. The temporal muscle is then incised and folded back to expose the skull. A small trepanation hole is drilled in the outer lateral part of the skull just to the level of the MCA, and the trunk of the MCA is then occluded by electrocoagulation.
The compounds of the invention are administered by the i.p. route 30 minutes after occlusion of the MCA. Two days later, the animals are deeply anaesthetised using sodium pentobarbital (60 mg/kg i.p., 10 ml/kg) perfused through the heart with a 4% 2,3,5-triphenyltetrazolium chloride solution. The animals are finally decapitated, and the brains are extracted and placed for at least 24 hours in a saline solution containing 8% formaldehyde. Measurement of the necrosed surface area is determined using an image analysis system (DigiCell for Windows 4.0).

Chain of HEK-293 cells stably expressing the subunit α5 of the human GABAA receptor, and also the subunits beta2 (short) and gamma2 (long) (Homo sapiens (Human), UniProt P18507+P31644+P47870) (P31644 32-462): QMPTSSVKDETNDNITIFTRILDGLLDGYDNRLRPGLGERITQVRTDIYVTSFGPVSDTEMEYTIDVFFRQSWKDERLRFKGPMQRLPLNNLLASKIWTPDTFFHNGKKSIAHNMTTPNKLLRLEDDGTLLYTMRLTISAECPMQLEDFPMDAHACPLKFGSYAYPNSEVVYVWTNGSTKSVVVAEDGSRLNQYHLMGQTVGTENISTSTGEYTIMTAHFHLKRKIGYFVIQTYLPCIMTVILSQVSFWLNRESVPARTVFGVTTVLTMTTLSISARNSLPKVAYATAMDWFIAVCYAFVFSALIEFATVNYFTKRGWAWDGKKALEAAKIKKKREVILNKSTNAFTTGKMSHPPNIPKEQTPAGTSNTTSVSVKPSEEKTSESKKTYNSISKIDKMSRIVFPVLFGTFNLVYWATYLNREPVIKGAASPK
Chain of HEK-293 cells stably expressing the subunit α5 of the human GABAA receptor, and also the subunits beta2 (short) and gamma2 (long) (Homo sapiens (Human), UniProt P18507+P31644+P47870) (P47870 25-512 partner): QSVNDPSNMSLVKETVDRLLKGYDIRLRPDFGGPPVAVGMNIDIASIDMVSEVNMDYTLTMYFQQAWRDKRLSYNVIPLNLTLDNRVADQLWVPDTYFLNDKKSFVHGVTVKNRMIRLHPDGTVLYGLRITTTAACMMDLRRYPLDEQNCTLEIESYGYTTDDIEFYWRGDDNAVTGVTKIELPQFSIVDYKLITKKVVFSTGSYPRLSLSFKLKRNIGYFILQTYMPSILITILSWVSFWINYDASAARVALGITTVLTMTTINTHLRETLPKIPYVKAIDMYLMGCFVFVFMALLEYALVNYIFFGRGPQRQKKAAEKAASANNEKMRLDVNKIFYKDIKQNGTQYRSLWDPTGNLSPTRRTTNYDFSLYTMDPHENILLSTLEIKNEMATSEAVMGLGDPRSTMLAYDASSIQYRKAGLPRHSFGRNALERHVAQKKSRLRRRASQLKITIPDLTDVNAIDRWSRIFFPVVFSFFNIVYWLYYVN
Chain of HEK-293 cells stably expressing the subunit α5 of the human GABAA receptor, and also the subunits beta2 (short) and gamma2 (long) (Homo sapiens (Human), UniProt P18507+P31644+P47870) (P18507 40-475 partner): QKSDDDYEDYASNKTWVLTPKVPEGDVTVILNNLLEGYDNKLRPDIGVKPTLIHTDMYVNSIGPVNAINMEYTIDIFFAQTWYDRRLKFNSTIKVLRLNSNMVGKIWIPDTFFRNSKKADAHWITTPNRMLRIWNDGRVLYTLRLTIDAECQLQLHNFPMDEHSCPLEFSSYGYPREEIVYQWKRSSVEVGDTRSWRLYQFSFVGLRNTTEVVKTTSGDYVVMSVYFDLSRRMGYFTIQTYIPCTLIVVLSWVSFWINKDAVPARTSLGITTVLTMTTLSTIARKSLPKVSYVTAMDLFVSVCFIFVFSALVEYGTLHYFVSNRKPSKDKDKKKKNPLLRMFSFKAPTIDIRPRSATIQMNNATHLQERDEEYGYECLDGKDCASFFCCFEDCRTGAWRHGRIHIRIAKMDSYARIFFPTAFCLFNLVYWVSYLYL
Chain of HEK-293 cells stably expressing the subunit α5 of the human GABAA receptor, and also the subunits beta2 (short) and gamma2 (long) (Homo sapiens (Human), UniProt P31644) (P31644 32-462): as the sequence (P31644 32-462) above
Chain of HEK-293 cells stably expressing the subunit α5 of the human GABAA receptor, and also the subunits beta2 (short) and gamma2 (long) (Homo sapiens (Human), UniProt P31644) (P47870 25-512 partner): as the sequence (P47870 25-512 partner) above
Chain of HEK-293 cells stably expressing the subunit α5 of the human GABAA receptor, and also the subunits beta2 (short) and gamma2 (long) (Homo sapiens (Human), UniProt P31644) (P18507 40-475 partner): as the sequence (P18507 40-475 partner) above

Row | IC50 [1] [nM] | IC50 [2] [nM] | SMILES | also measured
1 | 430 |  | CC1=NN=C(c2ccc3ncccc3c2)c2cc3oc(=O)[nH]c3cc2C1 [Example 5, 8-methyl-5-(6-quinolyl)-1,9-dihydro-2H-[1,3]oxazolo[4,5-h][2,3]-benzodiazepin-2-one] | 
2 |  | 130 | CC1=NN=C(c2cc3ccccc3s2)c2cc3oc(=O)[nH]c3cc2C1 [Example 6, 5-(1-benzothien-2-yl)-8-methyl-1,9-dihydro-2H-[1,3]oxazolo[4,5-h][2,3]benzodiazepin-2-one] | 
3 |  | 250 | CC1=NN=C(c2sc3cccc(C(F)(F)F)c3c2Cl)c2cc3oc(=O)[nH]c3cc2C1 [Example 9, 5-[3-chloro-4-(trifluoromethyl)-1-benzothien-2-yl]-8-methyl-1,9-dihydro-2H-[1,3]oxazolo[4,5-h][2,3]benzodiazepin-2-one] | 
4 |  | 200 | CC1=NN=C(c2cc3c(F)cccc3s2)c2cc3oc(=O)[nH]c3cc2C1 [Example 21, 5-(4-fluoro-1-benzothien-2-yl)-8-methyl-1,9-dihydro-2H-[1,3]oxazolo[4,5-h][2,3]benzodiazepin-2-one] | procognitive effect in the object recognition model (male NMRI mice [3]; doses of 0.01, 0.03 and 0.1 mg/kg, FIG. 1): significant procognitive effect; reversal of ketamine-induced referential memory deficit (rats): significantly reverses the ketamine-induced referential memory deficit; inhibition of cerebral damage (necrosed surface area) (male NMRI mice [4]): significantly inhibits cerebral damage
5 |  | 500 | CC1=NN=C(c2cc3c(C(F)(F)F)cccc3s2)c2cc3oc(=O)[nH]c3cc2C1 [Example 31, 8-methyl-5-[4-(trifluoromethyl)-1-benzothien-2-yl]-1,9-dihydro-2H-[1,3]oxazolo[4,5-h][2,3]benzodiazepin-2-one] | procognitive effect in the object recognition model (male NMRI mice [3]; dose of 1 mg/kg, FIG. 2): significant procognitive effect
6 | 172 |  | CC1=NN=C(c2cc3cc(Cl)ccc3s2)c2cc3oc(=O)[nH]c3cc2C1 [Example 32, 5-(5-chloro-1-benzothien-2-yl)-8-methyl-1,9-dihydro-2H-[1,3]-oxazolo[4,5-h][2,3]benzodiazepin-2-one] | 
7 |  | 100 | CC1=NN=C(c2cc3ccc(F)cc3s2)c2cc3oc(=O)[nH]c3cc2C1 [Example 36, 5-(6-fluoro-1-benzothien-2-yl)-8-methyl-1,9-dihydro-2H-[1,3]oxazolo[4,5-h][2,3]benzodiazepin-2-one] | procognitive effect in the object recognition model (male NMRI mice [3]; dose of 10 mg/kg, FIG. 3): significant precognitive effect
8 | 227 |  | CC1=NN=C(c2cc3cccc(F)c3s2)c2cc3oc(=O)[nH]c3cc2C1 [Example 40, 5-(7-fluoro-1-benzothien-2-yl)-8-methyl-1,9-dihydro-2H-[1,3]-oxazolo[4,5-h][2,3]benzodiazepin-2-one] | 
